Measurements reported in patent US12371428B2 (Exelixis, Inc., priority 2019, dated 2025).
pIC50: −log10 of the molar value.

Columns and labels:
Assay type in all cases: cell-based
[1] = biological target: AXL (phospho-AXL, Gas6-stimulated A-172 glioblastoma cells) (Homo sapiens (Human), UniProt P30530); assay: AXL autophosphorylation ELISA in A-172 cells (Example E); conditions: cellular activity; AXL autophosphorylation ELISA in A-172 cells; read-out: Axl IC50
Summary of the method: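 Phospho-AXL was measured by ELISA in lysates of Gas6-stimulated A-172 cells, starved 24 h in serum-free medium and exposed 1 h to an 8-point compound dilution at 0.3% DMSO.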

[2] = biological target: Met (phospho-Met, HGF-stimulated PC-3 prostate cancer cells) (Homo sapiens (Human), UniProt P08581); assay: Met autophosphorylation ELISA in PC-3 cells (Example F); conditions: cellular activity; Met autophosphorylation ELISA in PC-3 cells; read-out: c-Met IC50
Summary of the method: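 Sandwich ELISA for phospho-Met (panTyr) in PC-3 lysates. Cells starved 3 h serum-free, compound 1 h (8-pt curve, 0.3% DMSO), HGF 100 ng/mL 10 min. 100% = HGF + DMSO; 0% = HGF + reference inhibitor. IC50 by 4-parameter fit.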

[3] = biological target: KDR (phospho-KDR, VEGF165-stimulated HUVEC cells) (Homo sapiens (Human), UniProt P35968); assay: KDR autophosphorylation ELISA in HUVEC cells (Example G); conditions: cellular activity; KDR autophosphorylation ELISA in HUVEC cells
Summary of the method: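 Read-out is phospho-KDR measured by ELISA in lysates of VEGF165-stimulated (100 ng/mL, 5 min) HUVEC that were serum-starved 24 h and then pre-exposed 1 h to compound across 8 doses in 0.3% DMSO. Unstimulated lysates defined 0% and stimulated vehicle lysates 100% activity; IC50 values come from 4-parameter logistic regression.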

[4] = biological target: Mer (phospho-Mer, MERTK-transfected 293A cells) (Homo sapiens (Human), UniProt Q12866); assay: Mer autophosphorylation ELISA in transient transfected 293A cells (Example H); conditions: cellular activity; Mer autophosphorylation ELISA in transient transfected 293A cells
Summary of the method: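 MERTK-transfected 293A; 8-pt dose, 1 h, serum-free, 0.3% DMSO. Cold lysis with orthovanadate and protease/phosphatase inhibitors. Phospho-Mer by DuoSet IC ELISA vs phospho-Mer standard. IC50: 4-PL fit; DMSO = 100%, reference inhibitor = 0%.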

Mer (phospho-Mer, MERTK-transfected 293A cells), sequence (Q12866 21-999): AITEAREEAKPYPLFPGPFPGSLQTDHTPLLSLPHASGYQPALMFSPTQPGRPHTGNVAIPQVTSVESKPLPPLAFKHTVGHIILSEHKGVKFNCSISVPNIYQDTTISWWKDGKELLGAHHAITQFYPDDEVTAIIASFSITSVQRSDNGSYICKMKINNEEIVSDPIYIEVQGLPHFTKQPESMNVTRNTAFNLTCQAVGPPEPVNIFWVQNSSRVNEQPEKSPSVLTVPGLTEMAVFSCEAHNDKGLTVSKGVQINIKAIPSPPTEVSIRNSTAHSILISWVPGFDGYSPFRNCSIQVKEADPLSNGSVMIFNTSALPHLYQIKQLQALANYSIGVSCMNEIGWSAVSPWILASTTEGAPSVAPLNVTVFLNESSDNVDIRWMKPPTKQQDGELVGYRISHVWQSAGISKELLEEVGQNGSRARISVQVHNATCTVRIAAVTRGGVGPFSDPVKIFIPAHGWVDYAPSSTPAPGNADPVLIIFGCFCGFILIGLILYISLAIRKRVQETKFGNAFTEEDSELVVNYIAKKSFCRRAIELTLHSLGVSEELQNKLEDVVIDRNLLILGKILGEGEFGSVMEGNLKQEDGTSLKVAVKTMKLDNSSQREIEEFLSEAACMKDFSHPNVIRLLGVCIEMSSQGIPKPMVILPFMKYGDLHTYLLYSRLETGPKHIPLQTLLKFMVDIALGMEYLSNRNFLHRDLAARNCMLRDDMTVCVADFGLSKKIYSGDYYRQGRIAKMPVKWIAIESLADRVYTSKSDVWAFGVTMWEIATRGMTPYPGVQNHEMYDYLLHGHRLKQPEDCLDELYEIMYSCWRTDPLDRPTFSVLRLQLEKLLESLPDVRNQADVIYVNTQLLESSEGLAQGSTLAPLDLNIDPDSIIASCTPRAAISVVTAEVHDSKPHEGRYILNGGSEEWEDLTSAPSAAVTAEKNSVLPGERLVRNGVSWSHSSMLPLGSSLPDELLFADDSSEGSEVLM
Met (phospho-Met, HGF-stimulated PC-3 prostate cancer cells), sequence (P08581 25-1390): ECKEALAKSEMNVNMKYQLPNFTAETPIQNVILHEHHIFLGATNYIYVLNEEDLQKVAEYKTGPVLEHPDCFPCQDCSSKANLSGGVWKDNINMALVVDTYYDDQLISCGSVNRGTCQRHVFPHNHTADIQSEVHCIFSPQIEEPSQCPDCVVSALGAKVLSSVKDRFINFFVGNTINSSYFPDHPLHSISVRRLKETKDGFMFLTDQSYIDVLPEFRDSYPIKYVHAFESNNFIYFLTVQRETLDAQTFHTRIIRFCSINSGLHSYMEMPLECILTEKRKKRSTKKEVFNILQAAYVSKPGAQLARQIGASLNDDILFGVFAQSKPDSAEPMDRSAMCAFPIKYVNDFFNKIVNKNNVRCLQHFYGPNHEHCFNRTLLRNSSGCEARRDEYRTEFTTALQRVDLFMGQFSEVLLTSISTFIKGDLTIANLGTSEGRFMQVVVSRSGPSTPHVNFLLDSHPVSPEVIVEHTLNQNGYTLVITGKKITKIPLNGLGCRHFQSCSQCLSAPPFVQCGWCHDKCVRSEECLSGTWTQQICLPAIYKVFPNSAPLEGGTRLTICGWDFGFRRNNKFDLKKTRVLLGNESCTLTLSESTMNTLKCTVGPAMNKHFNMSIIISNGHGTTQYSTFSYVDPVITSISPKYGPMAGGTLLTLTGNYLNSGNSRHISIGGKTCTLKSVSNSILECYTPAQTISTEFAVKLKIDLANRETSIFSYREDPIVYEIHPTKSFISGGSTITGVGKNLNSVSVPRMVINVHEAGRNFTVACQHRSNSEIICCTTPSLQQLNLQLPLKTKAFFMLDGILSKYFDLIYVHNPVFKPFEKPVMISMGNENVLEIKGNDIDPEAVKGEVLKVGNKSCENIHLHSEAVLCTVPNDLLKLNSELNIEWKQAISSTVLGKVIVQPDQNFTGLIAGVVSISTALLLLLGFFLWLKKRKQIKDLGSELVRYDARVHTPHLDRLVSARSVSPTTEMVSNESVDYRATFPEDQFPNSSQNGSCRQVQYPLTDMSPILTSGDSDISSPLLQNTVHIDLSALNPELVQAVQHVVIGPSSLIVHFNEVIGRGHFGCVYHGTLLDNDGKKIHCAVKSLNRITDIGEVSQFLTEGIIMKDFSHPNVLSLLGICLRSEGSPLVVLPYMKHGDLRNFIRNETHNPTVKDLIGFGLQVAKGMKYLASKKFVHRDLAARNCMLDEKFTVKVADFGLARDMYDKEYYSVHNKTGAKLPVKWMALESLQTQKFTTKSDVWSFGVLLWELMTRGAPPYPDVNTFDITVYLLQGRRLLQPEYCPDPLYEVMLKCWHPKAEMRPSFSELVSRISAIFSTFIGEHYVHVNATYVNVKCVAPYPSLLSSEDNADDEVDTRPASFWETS
KDR (phospho-KDR, VEGF165-stimulated HUVEC cells), sequence (P35968 20-1356): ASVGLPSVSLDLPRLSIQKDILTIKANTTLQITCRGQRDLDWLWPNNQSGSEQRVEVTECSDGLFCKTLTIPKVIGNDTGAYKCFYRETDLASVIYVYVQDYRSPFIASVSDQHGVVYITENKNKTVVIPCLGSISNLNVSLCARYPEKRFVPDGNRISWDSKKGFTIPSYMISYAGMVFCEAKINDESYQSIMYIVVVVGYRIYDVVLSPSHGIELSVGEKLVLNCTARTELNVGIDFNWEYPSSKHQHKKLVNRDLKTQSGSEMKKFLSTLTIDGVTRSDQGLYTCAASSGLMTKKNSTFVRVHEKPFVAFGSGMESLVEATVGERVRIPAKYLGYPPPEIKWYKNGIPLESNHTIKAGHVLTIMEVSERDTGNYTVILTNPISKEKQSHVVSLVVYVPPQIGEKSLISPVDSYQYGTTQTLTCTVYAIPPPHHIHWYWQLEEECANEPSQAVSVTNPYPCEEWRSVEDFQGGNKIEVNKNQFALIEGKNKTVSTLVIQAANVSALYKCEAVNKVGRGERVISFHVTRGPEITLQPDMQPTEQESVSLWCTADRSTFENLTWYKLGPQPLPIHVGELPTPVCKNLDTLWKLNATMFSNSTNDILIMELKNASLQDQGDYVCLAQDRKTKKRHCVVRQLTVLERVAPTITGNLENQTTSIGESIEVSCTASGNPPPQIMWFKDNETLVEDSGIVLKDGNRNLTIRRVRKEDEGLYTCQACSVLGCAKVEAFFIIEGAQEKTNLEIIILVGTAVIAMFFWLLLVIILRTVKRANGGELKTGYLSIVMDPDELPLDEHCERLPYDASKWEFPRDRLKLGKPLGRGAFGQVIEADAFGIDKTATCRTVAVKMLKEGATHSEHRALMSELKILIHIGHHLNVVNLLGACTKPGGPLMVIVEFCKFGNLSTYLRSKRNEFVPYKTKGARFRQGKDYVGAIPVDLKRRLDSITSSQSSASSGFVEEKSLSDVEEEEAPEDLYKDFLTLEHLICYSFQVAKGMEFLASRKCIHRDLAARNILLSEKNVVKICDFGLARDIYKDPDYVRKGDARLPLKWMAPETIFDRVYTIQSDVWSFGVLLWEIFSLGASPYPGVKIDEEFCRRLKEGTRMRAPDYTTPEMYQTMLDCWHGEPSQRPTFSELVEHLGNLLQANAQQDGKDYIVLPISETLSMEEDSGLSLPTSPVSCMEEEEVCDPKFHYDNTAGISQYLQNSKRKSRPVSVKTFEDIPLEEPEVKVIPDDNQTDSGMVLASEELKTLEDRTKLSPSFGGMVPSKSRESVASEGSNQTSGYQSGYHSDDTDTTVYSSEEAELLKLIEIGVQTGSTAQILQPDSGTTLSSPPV
AXL (phospho-AXL, Gas6-stimulated A-172 glioblastoma cells), sequence (P30530 26-894): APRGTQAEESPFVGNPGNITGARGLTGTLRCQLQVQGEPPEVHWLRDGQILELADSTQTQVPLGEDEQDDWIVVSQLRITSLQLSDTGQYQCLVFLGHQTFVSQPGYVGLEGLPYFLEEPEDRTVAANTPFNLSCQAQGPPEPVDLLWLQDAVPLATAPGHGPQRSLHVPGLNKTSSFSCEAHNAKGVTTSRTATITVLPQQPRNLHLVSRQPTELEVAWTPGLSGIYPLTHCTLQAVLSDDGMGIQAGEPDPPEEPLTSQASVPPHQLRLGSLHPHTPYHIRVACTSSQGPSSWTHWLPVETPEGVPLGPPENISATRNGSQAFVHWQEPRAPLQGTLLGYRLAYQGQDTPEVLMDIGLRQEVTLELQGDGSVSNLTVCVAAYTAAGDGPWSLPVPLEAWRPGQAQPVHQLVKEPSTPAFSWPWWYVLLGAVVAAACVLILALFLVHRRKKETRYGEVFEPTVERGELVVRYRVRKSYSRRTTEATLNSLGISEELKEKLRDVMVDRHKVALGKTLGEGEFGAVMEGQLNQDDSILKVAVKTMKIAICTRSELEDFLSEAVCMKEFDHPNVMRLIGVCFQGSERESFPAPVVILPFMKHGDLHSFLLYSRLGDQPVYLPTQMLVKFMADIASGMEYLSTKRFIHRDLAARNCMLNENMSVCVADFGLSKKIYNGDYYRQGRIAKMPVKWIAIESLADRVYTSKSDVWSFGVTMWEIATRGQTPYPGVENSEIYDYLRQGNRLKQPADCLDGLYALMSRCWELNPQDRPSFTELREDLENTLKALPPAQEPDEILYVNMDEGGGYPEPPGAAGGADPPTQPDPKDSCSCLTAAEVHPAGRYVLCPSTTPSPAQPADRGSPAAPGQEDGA

pIC50 [1] | pIC50 [2] | pIC50 [3] | pIC50 [4] | Compound
> 7.00 | > 7.00 | < 6.52 | > 7.00 | COc1cc2nccc(Oc3ccc(NC(=O)c4cn5c(c(-c6ccc(F)cc6C)c4=O)COCC5)cc3F)c2nc1OC [Compound 766, N-[4-[(6,7-dimethoxy-1,5-naphthyridin-4-yl)oxy]-3-fluorophenyl]-9-(4-fluoro-2-methylphenyl)-8-oxo-3,4-dihydro-1H-pyrido[2,1-c][1,4]oxazine-7-carboxamide]
> 7.00 | > 7.00 | > 7.00 | > 7.00 | COc1cnc2c(Oc3c(F)cc(NC(=O)c4c(C)nc(C)c(-c5ccc(F)cc5C)c4O)cc3F)ccnc2c1 [Compound 767, N-[3,5-difluoro-4-[(7-methoxy-1,5-naphthyridin-4-yl)oxy]phenyl]-5-(4-fluoro-2-methylphenyl)-4-hydroxy-2,6-dimethylpyridine-3-carboxamide]
> 7.00 | > 7.00 | 6.52 to 7.00 | > 7.00 | COc1cc2nccc(Oc3cc(F)c(NC(=O)c4c(C)n(C)c(C)c(-c5ccc(F)cc5)c4=O)cc3F)c2nc1OC [Compound 769, N-[4-[(6,7-dimethoxy-1,5-naphthyridin-4-yl)oxy]-2,5-difluorophenyl]-5-(4-fluorophenyl)-1,2,6-trimethyl-4-oxopyridine-3-carboxamide]
> 7.00 | > 7.00 | > 7.00 | > 7.00 | COc1cnc2c(Oc3cc(F)c(NC(=O)c4c(C)nc(C)c(-c5ccc(F)cc5C)c4O)cc3Cl)ccnc2c1 [Compound 770, N-[5-chloro-2-fluoro-4-[(7-methoxy-1,5-naphthyridin-4-yl)oxy]phenyl]-5-(4-fluoro-2-methylphenyl)-4-hydroxy-2,6-dimethylpyridine-3-carboxamide]
> 7.00 | > 7.00 | < 6.52 | > 7.00 | COc1cnc2c(Oc3ccc(NC(=O)c4c(C)n(C)c(C)c(-c5ccc(F)cc5C)c4=O)cc3F)ccnc2c1 [Compound 771, N-[3-fluoro-4-[(7-methoxy-1,5-naphthyridin-4-yl)oxy]phenyl]-5-(4-fluoro-2-methylphenyl)-1,2,6-trimethyl-4-oxopyridine-3-carboxamide]
> 7.00 | > 7.00 | 6.52 to 7.00 | > 7.00 | COc1cc2nccc(Oc3cc(F)c(NC(=O)c4c(C)n(C)c(C)c(-c5ccc(F)cc5C)c4=O)cc3F)c2nc1OC [Compound 772, N-[4-[(6,7-dimethoxy-1,5-naphthyridin-4-yl)oxy]-2,5-difluorophenyl]-5-(4-fluoro-2-methylphenyl)-1,2,6-trimethyl-4-oxopyridine-3-carboxamide]
> 7.00 | > 7.00 | 6.52 to 7.00 | > 7.00 | COc1cc2nccc(Oc3ccc(NC(=O)c4c(C)n(C)c(C)c(-c5ccc(F)cc5C)c4=O)cc3F)c2nc1OC [Compound 774, N-[4-[(6,7-dimethoxy-1,5-naphthyridin-4-yl)oxy]-3-fluorophenyl]-5-(4-fluoro-2-methylphenyl)-1,2,6-trimethyl-4-oxopyridine-3-carboxamide]
> 7.00 | > 7.00 | < 6.52 | > 7.00 | COc1cc2nccc(Oc3ccc(NC(=O)c4c5n(c(C)c(-c6ccc(F)cc6C)c4=O)CCOC5)cc3F)c2nc1OC [Compound 782, N-[4-[(6,7-dimethoxy-1,5-naphthyridin-4-yl)oxy]-3-fluorophenyl]-7-(4-fluoro-2-methylphenyl)-6-methyl-8-oxo-3,4-dihydro-1H-pyrido[2,1-c][1,4]oxazine-9-carboxamide]
> 7.00 | > 7.00 | < 6.52 | > 7.00 | COc1cnc2c(Oc3ccc(NC(=O)c4c5n(c(C)c(-c6ccc(F)cc6)c4=O)CCOC5)cc3F)ccnc2c1 [Compound 783, N-[3-fluoro-4-[(7-methoxy-1,5-naphthyridin-4-yl)oxy]phenyl]-7-(4-fluorophenyl)-6-methyl-8-oxo-3,4-dihydro-1H-pyrido[2,1-c][1,4]oxazine-9-carboxamide]
> 7.00 | > 7.00 | < 6.52 | > 7.00 | COc1cnc2c(Oc3ccc(NC(=O)c4c5n(c(C)c(-c6ccc(F)cc6C)c4=O)CCOC5)cc3F)ccnc2c1 [Compound 784, N-[3-fluoro-4-[(7-methoxy-1,5-naphthyridin-4-yl)oxy]phenyl]-7-(4-fluoro-2-methylphenyl)-6-methyl-8-oxo-3,4-dihydro-1H-pyrido[2,1-c][1,4]oxazine-9-carboxamide]
> 7.00 | > 7.00 | > 7.00 | > 7.00 | COCCc1nc(C)c(-c2ccc(F)cc2)c(O)c1C(=O)Nc1ccc(Oc2ccnc3cc(OC)c(OC)nc23)c(F)c1 [Compound 785, N-[4-[(6,7-dimethoxy-1,5-naphthyridin-4-yl)oxy]-3-fluorophenyl]-5-(4-fluorophenyl)-4-hydroxy-2-(2-methoxyethyl)-6-methylpyridine-3-carboxamide]
> 7.00 | > 7.00 | > 7.00 | > 7.00 | COc1cc(F)ccc1-c1cnc(C)c(C(=O)Nc2ccc(Oc3ccnc4cc(OC)c(OC)nc34)c(F)c2)c1O [Compound 792, N-[4-[(6,7-dimethoxy-1,5-naphthyridin-4-yl)oxy]-3-fluorophenyl]-5-(4-fluoro-2-methoxyphenyl)-4-hydroxy-2-methylpyridine-3-carboxamide]
> 7.00 | > 7.00 | > 7.00 | > 7.00 | COc1cnc2c(Oc3ccc(NC(=O)c4c(C)ncc(-c5ccc(F)cc5OC)c4O)cc3F)ccnc2c1 [Compound 793, N-[3-fluoro-4-[(7-methoxy-1,5-naphthyridin-4-yl)oxy]phenyl]-5-(4-fluoro-2-methoxyphenyl)-4-hydroxy-2-methylpyridine-3-carboxamide]
> 7.00 | > 7.00 | > 7.00 | > 7.00 | COc1cc2nccc(Oc3ccc(NC(=O)c4c(C)ncc(-c5ccc(F)c(C)c5)c4O)cc3F)c2nc1OC [Compound 794, N-[4-[(6,7-dimethoxy-1,5-naphthyridin-4-yl)oxy]-3-fluorophenyl]-5-(4-fluoro-3-methylphenyl)-4-hydroxy-2-methylpyridine-3-carboxamide]
> 7.00 | > 7.00 | > 7.00 | > 7.00 | COc1cnc2c(Oc3ccc(NC(=O)c4c(C)ncc(-c5ccc(F)c(C)c5)c4O)cc3F)ccnc2c1 [Compound 795, N-[3-fluoro-4-[(7-methoxy-1,5-naphthyridin-4-yl)oxy]phenyl]-5-(4-fluoro-3-methylphenyl)-4-hydroxy-2-methylpyridine-3-carboxamide]
> 7.00 | > 7.00 | > 7.00 | > 7.00 | COc1cc2nccc(Oc3ccc(NC(=O)c4c(C)ncc(-c5ccc(F)c(F)c5)c4O)cc3F)c2nc1OC [Compound 796, 5-(3,4-difluorophenyl)-N-[4-[(6,7-dimethoxy-1,5-naphthyridin-4-yl)oxy]-3-fluorophenyl]-4-hydroxy-2-methylpyridine-3-carboxamide]
> 7.00 | > 7.00 | > 7.00 | > 7.00 | COc1cnc2c(Oc3ccc(NC(=O)c4c(C)ncc(-c5ccc(F)c(F)c5)c4O)cc3F)ccnc2c1 [Compound 797, 5-(3,4-difluorophenyl)-N-[3-fluoro-4-[(7-methoxy-1,5-naphthyridin-4-yl)oxy]phenyl]-4-hydroxy-2-methylpyridine-3-carboxamide]
